27 molecules from US10654837B2, “Sulphamoylaryl derivatives and use thereof as medicaments for the treatment of liver fibrosis” (Janssen Pharmaceutica NV, priority 2017, dated 2020) can be followed below.

The target of this assay is T1, 5HTR2B (Homo sapiens, UniProt P41595).
T1 construct: host or cells: human Maverick/293 cells
T1 sequence (P41595 whole entry): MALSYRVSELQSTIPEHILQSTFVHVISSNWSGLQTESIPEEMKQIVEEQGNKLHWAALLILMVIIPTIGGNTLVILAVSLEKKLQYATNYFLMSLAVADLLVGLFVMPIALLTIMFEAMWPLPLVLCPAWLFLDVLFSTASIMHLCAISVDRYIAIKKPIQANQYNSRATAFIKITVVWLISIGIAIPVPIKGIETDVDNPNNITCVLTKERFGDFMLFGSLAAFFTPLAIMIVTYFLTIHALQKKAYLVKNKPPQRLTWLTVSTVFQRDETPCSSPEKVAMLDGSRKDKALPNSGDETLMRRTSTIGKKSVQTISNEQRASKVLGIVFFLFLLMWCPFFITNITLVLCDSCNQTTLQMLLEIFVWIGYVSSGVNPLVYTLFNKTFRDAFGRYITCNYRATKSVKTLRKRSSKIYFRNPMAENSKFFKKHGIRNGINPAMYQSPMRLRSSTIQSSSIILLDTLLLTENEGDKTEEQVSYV
Description: 5HTR2B antagonist activity, calcium mobilization assay in human Maverick/293 cells (serotonin as agonist). It counts as cell-based. Conditions: intracellular calcium, emission 525 nm, read-out: Ca assay IC50. Put shortly:
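Serum-starved (2 h) human Maverick/293 cells loaded with calcium dye for 50 min at 37 °C, then antagonist preincubated 15-30 min before serotonin challenge. Calcium fluorescence (ex 485/em 525 nm) recorded for 80 s; peak-based % inhibition fitted sigmoidally for IC50.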
On to `COc1ccc(S(=O)(=O)N[C@H]2CCC[C@H]2O)cc1C(=O)Nc1ccccc1Cl` [Compound 61a, N-(2-Chlorophenyl)-5-(N-((1s,2r)-2-hydroxycyclopentyl)sulfamoyl)-2-methoxy benzamide], for which the IC50 is 0.1 nM.
Regarding `COc1ccc(S(=O)(=O)NC2CCC[C@@H]2O)cc1C(=O)Nc1ccccc1Cl` (stereo partly drawn) [Compound 61b, N-(2-Chlorophenyl)-5-(N-((trans)-2-hydroxycyclopentyl)sulfamoyl)-2-methoxy benzamide], the IC50 was 0.2 nM.
On to `COc1ccc(S(=O)(=O)NC2CCC[C@H]2O)cc1C(=O)Nc1ccccc1Cl` (stereo partly drawn) [Compound 61c, N-(2-chlorophenyl)-5-(N-((trans)-2-hydroxycyclopentyl)sulfamoyl)-2-methoxy benzamide], for which the IC50 turned out to be 0.2 nM.
In the case of `COc1ccc(S(=O)(=O)NC2COC2)cc1C(=O)Nc1ccccc1Cl` [Compound 62, N-(2-Chlorophenyl)-2-methoxy-5-(N-(oxetan-3-yl)sulfamoyl)benzamide], the IC50 turned out to be 0.1 nM.
In the case of `COc1ccc(S(=O)(=O)NC2CCC2)cc1C(=O)Nc1ccc(F)c(C)c1` [Compound 63, 5-(N-Cyclobutylsulfamoyl)-N-(4-fluoro-3-methylphenyl)-2-methoxybenzamide] it was 1.3 nM.
Regarding `COc1ccc(S(=O)(=O)N[C@H]2CCOC2)cc1C(=O)Nc1nccs1` [Compound 64, (S)-2-Methoxy-5-(N-(tetrahydrofuran-3-yl)sulfamoyl)-N-(thiazol-2-yl) benzamide], the IC50 stood at 65 nM.
With `COc1ccc(S(=O)(=O)N[C@H]2CCOC2)cc1C(=O)Nc1ccc(F)cc1F` [Compound 65, (S)—N-(2,4-Difluorophenyl)-2-methoxy-5-(N-(tetrahydrofuran-3-yl)sulfamoyl) benzamide] the figure was 0.34 nM.
Regarding `COc1ccc(S(=O)(=O)N[C@H]2CCOC2)cc1C(=O)Nc1ccc(F)cc1Cl` [Compound 66, (S)—N-(2-Chloro-4-fluorophenyl)-2-methoxy-5-(N-(tetrahydrofuran-3-yl)sulfamoyl)benzamide], the IC50 stood at 0.2 nM.
Turning to `COc1ccc(S(=O)(=O)N[C@H]2CCOC2)cc1C(=O)Nc1cc(F)cc(F)c1` [Compound 67, (S)—N-(3,5-Difluorophenyl)-2-methoxy-5-(N-(tetrahydrofuran-3-yl)sulfamoyl)benzamide], the IC50 was determined as 8.8 nM.
As to `COc1ccc(S(=O)(=O)N[C@H]2CCOC2)cc1C(=O)Nc1cc(F)cc(Cl)c1` [Compound 68, (S)—N-(3-Chloro-5-fluorophenyl)-2-methoxy-5-(N-(tetrahydrofuran-3-yl)sulfamoyl)benzamide], the IC50 is 2.9 nM.
With `COc1ccc(S(=O)(=O)N[C@H]2CCOC2)cc1C(=O)Nc1cc(F)ccc1F` [Compound 69, (S)—N-(2,5-Difluorophenyl)-2-methoxy-5-(N-(tetrahydrofuran-3-yl)sulfamoyl) benzamide] the figure was 1.5 nM; with `COc1ccc(S(=O)(=O)N[C@H]2CCOC2)cc1C(=O)Nc1cc(F)ccc1Cl` [Compound 70, (S)—N-(2-Chloro-5-fluorophenyl)-2-methoxy-5-(N-(tetrahydrofuran-3-yl)sulfamoyl)benzamide], 0.3 nM; with `COc1ccc(S(=O)(=O)N[C@H]2CCOC2)cc1C(=O)Nc1cc(Cl)ccc1Cl` [Compound 71, (S)—N-(2,5-Dichlorophenyl)-2-methoxy-5-(N-(tetrahydrofuran-3-yl)sulfamoyl)benzamide], 1.6 nM.
`COc1ccc(S(=O)(=O)N[C@H]2CCOC2)cc1C(=O)Nc1ccc(Cl)c(Cl)c1` [Compound 72, (S)—N-(3,4-Dichlorophenyl)-2-methoxy-5-(N-(tetrahydrofuran-3-yl)sulfamoyl) benzamide]: the IC50 was 5.1 nM.
With `COc1ccc(S(=O)(=O)N[C@H]2CCOC2)cc1C(=O)Nc1ccc(C#N)cc1F` [Compound 73, (S)—N-(4-Cyano-2-fluorophenyl)-2-methoxy-5-(N-(tetrahydrofuran-3-yl)sulfamoyl)benzamide], the IC50 was 5.5 nM.
For `COc1ccc(S(=O)(=O)N[C@H]2CCOC2)cc1C(=O)Nc1cc(F)c(F)cc1F` [Compound 74, (S)-2-Methoxy-5-(N-(tetrahydrofuran-3-yl)sulfamoyl)-N-(2,4,5-trifluorophenyl) benzamide], the IC50 was 0.8 nM.
Turning to `COc1ccc(S(=O)(=O)N[C@H]2CCOC2)cc1C(=O)Nc1cc(Cl)c(F)cc1F` [Compound 75, (S)—N-(5-Chloro-2,4-difluorophenyl)-2-methoxy-5-(N-(tetrahydrofuran-3-yl)sulfamoyl)benzamide], the IC50 came out at 9.1 nM.
In the case of `COc1ccc(S(=O)(=O)N[C@H]2CCOC2)cc1C(=O)Nc1c(F)cc(F)cc1F` [Compound 76, (S)-2-Methoxy-5-(N-(tetrahydrofuran-3-yl)sulfamoyl)-N-(2,4,6-trifluorophenyl) benzamide] it was 3.1 nM; in that of `COc1ccc(S(=O)(=O)N[C@H]2CCOC2)cc1C(=O)Nc1ccc(F)c(Cl)c1F` [Compound 77, (S)—N-(3-Chloro-2,4-difluorophenyl)-2-methoxy-5-(N-(tetrahydrofuran-3-yl)sulfamoyl)benzamide], 5.3 nM.
As to `COc1ccc(S(=O)(=O)N[C@H]2CCOC2)cc1C(=O)Nc1c(F)cc(F)cc1Cl` [Compound 78, (S)—N-(2-Chloro-4,6-difluorophenyl)-2-methoxy-5-(N-(tetrahydrofuran-3-yl)sulfamoyl)benzamide], the IC50 was determined as 2.4 nM.
With `COc1ccc(S(=O)(=O)N[C@H]2CCOC2)cc1C(=O)Nc1ccn(C)n1` [Compound 79, (S)-2-Methoxy-N-(1-methyl-1H-pyrazol-3-yl)-5-(N-(tetrahydrofuran-3-yl)sulfamoyl)benzamide], the IC50 stood at 98 nM.
With `COc1ccc(S(=O)(=O)N[C@H]2CCOC2)cc1C(=O)Nc1c(F)cc(C#N)cc1F` [Compound 80, (S)—N-(4-cyano-2,6-difluorophenyl)-2-methoxy-5-(N-(tetrahydrofuran-3-yl)sulfamoyl)benzamide] the figure was 574 nM; with `COc1ccc(S(=O)(=O)N[C@H]2CCOC2)cc1C(=O)Nc1c(Cl)cccc1Cl` [Compound 81, (S)—N-(2,6-Dichlorophenyl)-2-methoxy-5-(N-(tetrahydrofuran-3-yl)sulfamoyl) benzamide], 32 nM.
With `COc1ccc(S(=O)(=O)N[C@H]2CCOC2)cc1C(=O)Nc1nc(C)cs1` [Compound 82, (S)-2-methoxy-N-(4-methylthiazol-2-yl)-5-(N-(tetrahydrofuran-3-yl)sulfamoyl) benzamide] the figure was 1.1 nM; with `COc1ccc(S(=O)(=O)N[C@H]2CCOC2)cc1C(=O)Nc1nc(C)c(C)s1` [Compound 83, (S)—N-(4,5-dimethylthiazol-2-yl)-2-methoxy-5-(N-(tetrahydrofuran-3-yl)sulfamoyl)benzamide], 126 nM; with `COc1ccc(S(=O)(=O)N[C@H]2CCOC2)cc1C(=O)Nc1ncc(C)s1` [Compound 84, (S)-2-methoxy-N-(5-methylthiazol-2-yl)-5-(N-(tetrahydrofuran-3-yl)sulfamoyl) benzamide], 716 nM.
For the molecule `COc1ccc(S(=O)(=O)N[C@H]2CCOC2)cc1C(=O)Nc1ccc(Cl)cc1Cl` [Compound 85, (S)—N-(2,4-Dichlorophenyl)-2-methoxy-5-(N-(tetrahydrofuran-3-yl)sulfamoyl) benzamide], the IC50 worked out at 1.5 nM.
